# Measurements reported in PMC3961306, “Comparison of the Cancer Gene Targeting and Biochemical Selectivities of All Targeted Kinase Inhibitors Approved for Clinical Use” (PLoS ONE, 2014).
# Experiments:
# Assay in all cases: Kinase profiling in a biochemical assay panel (mobility shift assays and ELISA), %-inhibition at 1 μM; selectivity entropy
# [1] = biological target: T1, panel of more than 300 wild-type and mutant kinases (313 kinase panel) (Homo sapiens, UniProt Q8NE63)
# T1 sequence (Q8NE63 1-616): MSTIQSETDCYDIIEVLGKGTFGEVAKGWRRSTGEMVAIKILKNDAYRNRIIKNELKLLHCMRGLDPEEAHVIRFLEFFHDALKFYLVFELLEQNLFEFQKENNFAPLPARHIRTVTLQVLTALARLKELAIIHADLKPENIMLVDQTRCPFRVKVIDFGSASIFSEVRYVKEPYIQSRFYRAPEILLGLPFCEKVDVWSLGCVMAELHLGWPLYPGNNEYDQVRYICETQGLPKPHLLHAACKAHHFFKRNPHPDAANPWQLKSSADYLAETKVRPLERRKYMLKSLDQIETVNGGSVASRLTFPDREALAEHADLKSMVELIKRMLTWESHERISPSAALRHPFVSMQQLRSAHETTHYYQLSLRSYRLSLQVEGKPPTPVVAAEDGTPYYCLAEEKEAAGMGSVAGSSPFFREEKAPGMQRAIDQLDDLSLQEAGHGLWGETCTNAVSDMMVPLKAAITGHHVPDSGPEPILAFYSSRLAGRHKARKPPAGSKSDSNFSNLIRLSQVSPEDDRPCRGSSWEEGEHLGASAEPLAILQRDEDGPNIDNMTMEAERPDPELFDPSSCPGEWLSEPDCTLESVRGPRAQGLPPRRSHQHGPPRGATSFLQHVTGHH
# [2] = biological target: panel of more than 300 wild-type and mutant kinases (313 kinase panel) (Homo sapiens, UniProt P19525); conditions: kinase PKR; 1 μM
# [3] = biological target: panel of more than 300 wild-type and mutant kinases (313 kinase panel) (Homo sapiens, UniProt Q9P0L2)
# panel of more than 300 wild-type and mutant kinases (313 kinase panel) (Homo sapiens, UniProt Q9P0L2), sequence (Q9P0L2 whole entry, change not shown): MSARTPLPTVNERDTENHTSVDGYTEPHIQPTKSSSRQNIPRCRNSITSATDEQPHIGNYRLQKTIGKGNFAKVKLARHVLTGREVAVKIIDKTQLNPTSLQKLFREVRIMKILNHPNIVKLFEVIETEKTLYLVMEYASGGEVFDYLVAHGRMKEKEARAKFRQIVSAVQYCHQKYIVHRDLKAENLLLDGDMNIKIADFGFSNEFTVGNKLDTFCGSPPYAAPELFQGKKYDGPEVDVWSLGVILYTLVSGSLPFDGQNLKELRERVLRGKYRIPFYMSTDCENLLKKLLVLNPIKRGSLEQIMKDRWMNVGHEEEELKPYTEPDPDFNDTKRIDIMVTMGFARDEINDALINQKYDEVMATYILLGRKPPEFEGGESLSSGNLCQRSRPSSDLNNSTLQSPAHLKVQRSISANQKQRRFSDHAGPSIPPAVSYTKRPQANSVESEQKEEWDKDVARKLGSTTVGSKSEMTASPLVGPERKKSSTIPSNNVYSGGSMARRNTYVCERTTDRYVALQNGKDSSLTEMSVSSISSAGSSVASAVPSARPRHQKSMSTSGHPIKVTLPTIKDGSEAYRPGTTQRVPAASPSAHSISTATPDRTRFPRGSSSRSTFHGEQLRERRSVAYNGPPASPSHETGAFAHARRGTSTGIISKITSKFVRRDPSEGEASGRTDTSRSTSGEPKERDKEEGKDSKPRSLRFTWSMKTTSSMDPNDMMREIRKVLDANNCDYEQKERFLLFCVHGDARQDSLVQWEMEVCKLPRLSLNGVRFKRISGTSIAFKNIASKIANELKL
# [4] = biological target: T2, panel of more than 300 wild-type and mutant kinases (313 kinase panel) (Homo sapiens, UniProt O15530)
# T2 sequence (O15530 1-556): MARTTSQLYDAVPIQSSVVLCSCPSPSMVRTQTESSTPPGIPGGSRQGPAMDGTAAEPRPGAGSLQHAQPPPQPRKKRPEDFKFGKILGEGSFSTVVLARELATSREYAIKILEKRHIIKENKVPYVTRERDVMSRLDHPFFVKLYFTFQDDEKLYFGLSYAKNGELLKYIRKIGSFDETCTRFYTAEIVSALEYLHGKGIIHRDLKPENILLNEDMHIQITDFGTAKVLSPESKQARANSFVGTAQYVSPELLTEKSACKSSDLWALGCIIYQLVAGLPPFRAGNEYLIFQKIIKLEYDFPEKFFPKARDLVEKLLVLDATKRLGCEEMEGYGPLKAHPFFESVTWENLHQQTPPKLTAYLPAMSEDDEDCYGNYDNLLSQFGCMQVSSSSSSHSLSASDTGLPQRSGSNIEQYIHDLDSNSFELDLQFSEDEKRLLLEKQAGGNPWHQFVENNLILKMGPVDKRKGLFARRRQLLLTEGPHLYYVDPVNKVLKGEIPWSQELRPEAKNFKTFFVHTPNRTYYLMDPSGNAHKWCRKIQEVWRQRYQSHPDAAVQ
# [5] = biological target: panel of more than 300 wild-type and mutant kinases (313 kinase panel) (Homo sapiens, UniProt Q5VT25)
# [6] = biological target: T3, panel of more than 300 wild-type and mutant kinases (313 kinase panel) (Homo sapiens, UniProt O00141); conditions: kinase SGK; 1 μM
# T3 sequence (O00141 1-431): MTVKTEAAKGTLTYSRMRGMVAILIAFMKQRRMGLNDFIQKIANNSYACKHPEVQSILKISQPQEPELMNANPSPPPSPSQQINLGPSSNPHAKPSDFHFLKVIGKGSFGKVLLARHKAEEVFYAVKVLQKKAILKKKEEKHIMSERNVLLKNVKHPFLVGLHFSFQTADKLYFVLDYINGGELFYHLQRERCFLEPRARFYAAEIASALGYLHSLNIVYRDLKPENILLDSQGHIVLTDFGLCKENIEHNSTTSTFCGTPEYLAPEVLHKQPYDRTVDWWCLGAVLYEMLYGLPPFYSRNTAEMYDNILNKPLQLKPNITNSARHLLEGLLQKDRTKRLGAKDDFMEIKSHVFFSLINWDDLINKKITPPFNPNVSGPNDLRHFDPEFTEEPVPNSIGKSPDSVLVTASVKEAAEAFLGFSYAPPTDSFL
# [7] = biological target: panel of more than 300 wild-type and mutant kinases (313 kinase panel) (Homo sapiens, UniProt Q9Y6E0); conditions: kinase MST3; 1 μM
# [8] = biological target: panel of more than 300 wild-type and mutant kinases (313 kinase panel) (Homo sapiens, UniProt P29317); conditions: kinase EPHA2; compound at 1 μM
# [9] = biological target: panel of more than 300 wild-type and mutant kinases (313 kinase panel) (Homo sapiens, UniProt P27361)
# panel of more than 300 wild-type and mutant kinases (313 kinase panel) (Homo sapiens, UniProt P27361), sequence (P27361 whole entry, change not shown): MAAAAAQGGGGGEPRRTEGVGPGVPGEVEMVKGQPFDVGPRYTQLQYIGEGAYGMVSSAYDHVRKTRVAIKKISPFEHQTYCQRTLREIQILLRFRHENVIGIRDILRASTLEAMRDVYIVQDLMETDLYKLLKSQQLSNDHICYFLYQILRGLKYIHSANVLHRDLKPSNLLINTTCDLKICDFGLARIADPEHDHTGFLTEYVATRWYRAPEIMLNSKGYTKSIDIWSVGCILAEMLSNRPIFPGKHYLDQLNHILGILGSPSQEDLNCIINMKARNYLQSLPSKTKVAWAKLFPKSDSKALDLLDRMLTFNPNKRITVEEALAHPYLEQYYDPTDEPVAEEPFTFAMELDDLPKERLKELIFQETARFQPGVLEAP
# [10] = biological target: panel of more than 300 wild-type and mutant kinases (313 kinase panel) (Homo sapiens, UniProt P17612)
# [11] = biological target: panel of more than 300 wild-type and mutant kinases (313 kinase panel) (Homo sapiens, UniProt Q86Z02); conditions: kinase HIPK1; compound at 1 μM
Compound,"%-inhibition of HIPK4 ([1]; kinase HIPK4, compound at 1 μM) [%]",%-inhibition of PKR [2] [%],"%-inhibition of MARK1 ([3]; kinase MARK1, compound at 1 μM) [%]","%-inhibition of PDK1 ([4]; kinase PDK1, 1 μM) [%]","%-inhibition of MRCKα ([5]; kinase MRCKα, 1 μM) [%]",%-inhibition of SGK [6] [%],%-inhibition of MST3 [7] [%],%-inhibition of EPHA2 [8] [%],"%-inhibition of Erk1 ([9]; kinase Erk1, compound at 1 μM) [%]","%-inhibition of PKACα ([10]; kinase PKACα, 1 μM) [%]",%-inhibition of HIPK1 [11] [%],%-inhibition of HIPK4 ([1]; 1 µM) [%],%-inhibition of PKACα ([10]; 1 µM) [%],%-inhibition of MARK1 ([3]; 1 µM) [%],%-inhibition of PDK1 ([4]; 1 µM) [%],%-inhibition of MRCKα ([5]; 1 µM) [%],%-inhibition of Erk1 ([9]; 1 µM) [%]
CO[C@H]1C[C@@H]2CC[C@@H](C)[C@@](O)(O2)C(=O)C(=O)N2CCCC[C@H]2C(=O)O[C@H]([C@H](C)C[C@@H]2CC[C@@H](OC(=O)C(C)(CO)CO)[C@H](OC)C2)CC(=O)[C@H](C)/C=C(\C)[C@@H](O)[C@@H](OC)C(=O)[C@H](C)C[C@H](C)/C=C/C=C/C=C/1C [temsirolimus],2.19,-14,-5,-8,-1.53,-3.17,-3.6,-5.58,0.373,-6,-0.101,–,–,–,–,–,–
CNC(=O)c1cc(Oc2ccc(NC(=O)Nc3ccc(Cl)c(C(F)(F)F)c3)c(F)c2)ccn1 [regorafenib],100,-4.48,-24,-3,-5,-5.37,-6.62,88,-2,-5.47,47,–,–,–,–,–,–
COc1cc2nccc(Oc3ccc(NC(=O)C4(C(=O)Nc5ccc(F)cc5)CC4)cc3)c2cc1OC [cabozantinib],–,-4.3,-1,-7,0.575,-2,0.432,98,-1.33,-4.67,31,–,–,–,–,–,–
Cc1nc(Nc2ncc(C(=O)Nc3c(C)cccc3Cl)s2)cc(N2CCN(CCO)CC2)n1 [dasatinib],–,3,–,–,–,6,20,–,–,0.736,2.64,–,–,–,–,–,–
CC(C)(C)c1nc(-c2cccc(NS(=O)(=O)c3c(F)cccc3F)c2F)c(-c2ccnc(N)n2)s1 [dabrafenib],92,–,-15,-5.38,-1.84,4,0.532,7,-1.62,–,70,–,–,–,–,–,–
Cc1ccc(Nc2nccc(N(C)c3ccc4c(C)n(C)nc4c3)n2)cc1S(N)(=O)=O [pazopanib],22,–,2.19,-0.284,-2.17,-1.12,-4.48,15,-3.79,2,10,–,–,–,–,–,–
N#CC[C@H](C1CCCC1)n1cc(-c2ncnc3[nH]ccc23)cn1 [ruxolitinib],–,-6,–,-3.16,0.766,-2.44,-1.15,28,-2.29,–,3,3,48,–,–,–,–
C[C@@H](Oc1cc(-c2cnn(C3CCNCC3)c2)cnc1N)c1c(Cl)ccc(F)c1Cl [crizotinib],31,6,27,-5,-8,1.46,11,–,-2,-6,-7,–,–,–,–,–,–
O=S(=O)(c1cccc2cnccc12)N1CCCNCC1 [fasudil],-0.779,-4.39,-9,-2.83,-2.54,2.82,-1.29,-7,-3,–,-3.31,–,–,–,–,–,–
CS(=O)(=O)CCNCc1ccc(-c2ccc3ncnc(Nc4ccc(OCc5cccc(F)c5)c(Cl)c4)c3c2)o1 [lapatinib],9,-0.192,–,–,–,2.49,-1.84,1.22,-4,0.663,–,–,–,9,-2.71,-2.49,–
COc1cc(Nc2c(C#N)cnc3cc(OCCCN4CCN(C)CC4)c(OC)cc23)c(Cl)cc1Cl [bosutinib],–,-13,–,-4.64,–,-5,–,–,–,58,3.32,–,–,31,–,–,1.12
CCN(CC)CCNC(=O)c1c(C)[nH]c(/C=C2\C(=O)Nc3ccc(F)cc32)c1C [sunitinib],–,–,–,–,–,60,–,–,–,–,79,–,–,–,–,–,–
Cc1ccc(C(=O)Nc2ccc(CN3CCN(C)CC3)c(C(F)(F)F)c2)cc1C#Cc1cnc2cccnn12 [ponatinib],96,19,–,-5,-0.575,7.57,–,102,–,–,22,–,–,–,–,–,–
